The values below come from patent publication US6875761B2 (Eisai Co., Ltd., priority 1997, dated 2005).

Structures can show the parent of a compound that is named as a salt.

By melting point is commonly meant the temperature, or range, at which the solid turns liquid. The compound `CCN1CCN(c2nc(-c3ccc(C(O)(c4nccs4)c4nccs4)cc3)cc3ccccc23)CC1` (as salt: hydrochloride) [Example 411, 1-(4-ethylpiperazin-1-yl)-3-{4-[bis(1,3-thiazol-2-yl)hydroxymethyl]phenyl}isoquinoline] had a melting point of 157 to 158 °C.
In turn, `CCN1CCN(c2nc(-c3ccc4c(c3)OCCO4)cc3ccccc23)CC1` (as salt: hydrochloride) [Example 332, 1-(4-ethylpiperazin-1-yl)-3-(3,4-ethylenedioxyphenyl)isoquinoline dihydrochloride] showed a melting point of 141 to 143 °C.
As to `CCN1CCN(c2nc(-c3ccc4c(c3)CC(CO)C4)cc3ccccc23)CC1` (centres unmarked) (as salt: hydrochloride) [Example 393, 1-(4-Ethylpiperazin-1-yl)-3-(2-Hydroxymethylindan-5-yl)Isoquinoline Dihydrochloride], the melting point fell in the range of 136.5 to 138 °C.
For the compound `CCN1CCN(c2nc(/C=C/c3cccc(OCCO)c3)cc3ccsc23)CC1` (as salt: hydrochloride) [Example 430, 7-(4-ethylpiperazin-1-yl)-5-[3-(2-hydroxyethoxy)styryl]thieno [2,3-c]pyridine hydrochloride], the melting point fell in the range of 98 to 99 °C.
On to `CCCNC(=O)Cc1ccc(-c2cc3ccccc3c(N3CCN(CC)CC3)n2)cc1` (as salt: hydrochloride) [Example 88, 3-(4-Propylaminocarbonylmethylphenyl)-1-(4-ethylpiperazin-1-yl)isoquinoline Hydrochloride], for which the melting point was 138 to 141 °C.
For `CCN1CCN(c2nc(-c3ccc(OC)c(CCCO)c3)cc3ccccc23)CC1` (as salt: hydrochloride) [Example 34, 3-[3-(3-hydroxypropyl)-4-methoxyphenyl]-1-(4-ethylpiperazin-1-yl)isoquinoline hydrochloride], the melting point was in the range of 157 to 160 °C.
Next, `CCN1CCN(c2nc(-c3ccc(OCCO)c(C#N)c3)cc3ccccc23)CC1` (as salt: hydrochloride) [Example 417, 1-(4-ethylpiperazin-1-yl)-3-[3-cyano-4-(2-hydroxyethoxy)phenyl]isoquinoline]: 162 to 164 °C; `CCN1CCN(c2nc(-c3ccc(N4CCC(O)CC4)nc3)cc3ccsc23)CC1` (as salt: hydrochloride) [Example 265, 5-[2-(4-hydroxypiperidin-1-yl)pyridin-5-yl]-7-(4-ethylpiperazin-1-yl)thieno[2,3-c]pyridine Hydrochloride]: 208 to 210 °C.
For the compound `CCN1CCN(c2nc(-c3ccc(C(=O)N(C)CCO)cc3)cc3ccccc23)CC1` (as salt: oxalate) [Example 382, 1-(4-Ethylpiperazin-1-yl)-3-{4-[N-(2-Hydroxyethyl)-N-Methylcarbamoyl]Phenyl}Isoquinoline], the melting point lay within 116 to 118 °C.
In the case of `CCN1CCN(c2nc(-c3ccc(C(O)C4CCCCC4)cc3)cc3ccccc23)CC1` (centres unmarked) (as salt: hydrochloride) [Example 409, 1-(4-ethylpiperazin-1-yl)-3-[4-(cyclohexylhydroxymethyl)phenyl]isoquinoline], the melting point was 153 to 155 °C.
Next, `CCN1CCN(c2nc(-c3ccc(CC(C)O)cc3)cc3ccsc23)CC1` (centres unmarked) (as salt: hydrochloride) [Example 436, 7-(4-ethylpiperazin-1-yl)-5-[4-(2-hydroxypropyl)phenyl]thieno[2,3-c]pyridine dihydrochloride]: 66 to 67 °C; `CCN1CCN(c2nc(-c3cc(OC)ccc3OC)cc3ccccc23)CC1.Cl`: 189 to 191 °C.
Next, `CCN1CCN(c2nc(/C=C/c3ccc(CS(C)(=O)=O)cc3)cc3ccccc23)CC1` (as salt: oxalate) [Example 203, 3-[(E)-2-(4-Methylsulfonylmethylphenyl)Ethenyl]-1-(4-Ethylpiperazin-1-Yl)Isoquinoline Oxalate]: 245 to 247 °C; `CCC1CCN(c2nc(-c3ccc(OC)cc3)cc3ccccc23)CC1.Cl`: 109 to 114 °C.
